Source: US10221163B2 (priority 2015, dated 2019)
pIC50: −log10 of the molar value. Read-outs that look alike come from different tables or passages of the source.

Columns and labels:
VIM-1 = VIM-1 (Pseudomonas aeruginosa (strain ATCC 15692 / DSM 22644 / CIP 104116 / JCM 14847 / LMG 12228 / 1C / PRS 101 / PAO1), UniProt A0A0F7KYQ8); experiment: biochemical; details: CCF2-FA substrate, 30 pM enzyme, 2 hours at 25° C.
Method in brief: (§1)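 Class B activity is measured in the presence of compound by fluorescence with CCF2-FA after a 2-hour incubation at 25° C. IC50 is taken from a 4-parameter fit of semi-logarithmic dose-response data.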

[1] = test system: Pseudomonas aeruginosa MB9798 vs MB9799
Method in brief: (§2)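 P. aeruginosa PAO1-derived IMP-1 strains, efflux+ MB9798 and efflux− MB9799, tested by standard microbroth MIC with imipenem and/or ceftazidime fixed, usually at CLSI breakpoint, plus fixed class A/C β-lactamase inhibitor against AmpC. Inhibitor titrated; concentration restoring susceptibility recorded; MB9798/MB9799 fold difference indicates efflux.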

NDM-1 = NDM-1 (Klebsiella pneumoniae, UniProt C7C422); experiment: biochemical; assay type: biochemical; details: fluorescence assay, CCF2-FA substrate, 1 pM enzyme, 2 hours at 25° C.; read-out: NDM-1 IC50
Method in brief: as §1

IMP-1 = IMP-1 (Serratia marcescens, UniProt P52699); experiment: biochemical; assay type: biochemical; details: fluorescence assay, CCF2-FA substrate, 2 pM enzyme, 2 hours at 25° C.; read-out: IMP-1 IC50
Method in brief: as §1

[2] = test system: Pseudomonas aeruginosa efflux− (MB9799), IMP-1; assay type: cell-based; details: C, D serine β-lactamase inhibitor closely related to relebactam; for P. aeruginosa expressing IMP-1, efflux − (MB9799) MITC95: concentration restoring susceptibility to imipenem at 2 μg/mL in the presence of a class A; for Concentration of metallo-β-lactamase inhibitor which restores susceptibility of efflux − (MB9799) strain to imipenem: imipenem at 2 μg/mL, in the presence of a class A
Method in brief: as §2

[3] = test system: Pseudomonas aeruginosa efflux+ (MB9798), IMP-1; assay type: cell-based; design: Concentration of metallo-β-lactamase inhibitor which restores susceptibility of efflux + (MB9798) strain to imipenem: unit not given here; details: C, D serine β-lactamase inhibitor closely related to relebactam; for P. aeruginosa expressing IMP-1, efflux + (MB9798) MITC95: concentration restoring susceptibility to imipenem at 2 μg/mL in the presence of a class A; for Concentration of metallo-β-lactamase inhibitor which restores susceptibility of efflux + (MB9798) strain to imipenem: imipenem at 2 μg/mL, in the presence of a class A
Method in brief: as §2

[4] = test system: Serratia marcescens expressing IMP-1 (CL5741); assay type: cell-based; details: for Serratia marcescens expressing IMP-1 (CL5741) MITC95: with imipenem 1 μg/ml, 95% inhibition of bacterial growth; for Serratia marcescens MITC95: IMP-1 strain CL5741, with imipenem 1 μg/ml, 95% inhibition of growth
Method in brief: (§3)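 Imipenem 1 μg/ml + inhibitor; MBL-expressing clinical strains in 1.1×CAMHB, inoculum from saline suspension diluted 1:100; 35° C, 22–24 h; absorbance read-out.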

[5] = test system: Escherichia coli expressing NDM-1 (CLB30005, CLB30016); assay type: cell-based; details: with imipenem 1 μg/ml; for Escherichia coli expressing NDM-1 (CLB30016) MITC95: 95% inhibition of bacterial growth; for Escherichia coli MITC95: NDM-1 strain, 95% inhibition of growth
Method in brief: as §3

[6] = test system: Klebsiella pneumoniae expressing VIM-1 (IHMA599644); assay type: cell-based; details: for Klebsiella pneumoniae expressing VIM-1 (IHMA599644) MITC95: with imipenem 1 μg/ml, 95% inhibition of bacterial growth; for Klebsiella pneumoniae MITC95: VIM-1 strain IHMA599644, with imipenem 1 μg/ml, 95% inhibition of growth
Method in brief: as §3

[7] = fluorescence assay, read-out: VIM-1 IC50
[8] = ratio MITC95 PA_9798/MITC95 PA_9799
[9] = fold difference between efflux+ (MB9798) and efflux− (MB9799) strains, imipenem at 2 μg/mL

IMP-1, sequence (P52699 whole entry, looked up, species assumed): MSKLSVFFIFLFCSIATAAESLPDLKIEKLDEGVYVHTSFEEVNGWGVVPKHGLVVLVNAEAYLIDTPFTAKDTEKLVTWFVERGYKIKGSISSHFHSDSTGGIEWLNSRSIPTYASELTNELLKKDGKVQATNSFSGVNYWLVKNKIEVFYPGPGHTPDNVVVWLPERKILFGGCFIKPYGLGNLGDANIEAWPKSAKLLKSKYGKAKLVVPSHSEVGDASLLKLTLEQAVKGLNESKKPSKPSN
NDM-1, sequence (C7C422 whole entry, looked up, species assumed): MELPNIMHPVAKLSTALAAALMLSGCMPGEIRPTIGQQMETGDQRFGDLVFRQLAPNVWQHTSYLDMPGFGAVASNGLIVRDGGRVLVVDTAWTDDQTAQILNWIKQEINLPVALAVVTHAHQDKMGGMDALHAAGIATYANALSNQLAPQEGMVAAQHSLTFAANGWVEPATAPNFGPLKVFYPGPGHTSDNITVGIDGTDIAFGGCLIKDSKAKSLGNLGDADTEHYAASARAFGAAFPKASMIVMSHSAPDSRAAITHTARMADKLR

Row | SMILES | pIC50 (VIM-1; [7]) | Efflux ratio [1, 8] | pIC50 (NDM-1) | pIC50 (IMP-1) | P. aeruginosa expressing IMP-1, efflux − (MB9799) MITC95 [2] [µM] | P. aeruginosa expressing IMP-1, efflux + (MB9798) MITC95 [3] [µM] | Serratia marcescens expressing IMP-1 (CL5741) MITC95 [4] [µM] | Escherichia coli expressing NDM-1 (CLB30016) MITC95 [5] [µM] | Klebsiella pneumoniae expressing VIM-1 (IHMA599644) MITC95 [6] [µM] | pIC50 (VIM-1; VIM-1 IC50, fluorescence assay) | Serratia marcescens MITC95 [4] [µM] | Escherichia coli MITC95 [5] [µM] | Klebsiella pneumoniae MITC95 [6] [µM] | Efflux ratio [1, 9] | Concentration of metallo-β-lactamase inhibitor which restores susceptibility of efflux − (MB9799) strain to imipenem [2] | Concentration of metallo-β-lactamase inhibitor which restores susceptibility of efflux + (MB9798) strain to imipenem [3]
1 | COc1ccnc(CNS(=O)(=O)c2ccc(-c3cccc4sc(N)nc34)c(-c3nnn[nH]3)c2S(N)(=O)=O)n1 [Example 34, 4-(2-amino-1,3-benzothiazol-4-yl)-N1-[(4-methoxypyrimidin-2-yl)methyl]-3-(1H-tetrazol-5-yl)benzene-1,2-disulfonamide] | 9.48 | 4.00 | 10.09 | 9.37 | 6.25 | 25 | 6.25 | 25 | 50 | – | – | – | – | – | – | –
2 | NC[C@@H](N)CNS(=O)(=O)c1ccc(-c2cccc3ccc(N)nc23)c(-c2nn[nH]n2)c1S(N)(=O)=O [Example 376, (R)-4-(2-aminoquinolin-8-yl)-N1-(2,3-diaminopropyl)-3-(2H-tetrazol-5-yl)benzene-1,2-disulfonamide] | – | 1.00 | 10.26 | 9.56 | 1.563 | 1.563 | – | – | – | 9.56 | 3.125 | 0.7813 | 3.125 | – | – | –
3 | Nc1ccc(-c2ccc(S(=O)(=O)N[C@H]3CN[C@H](CO)C3)c(S(N)(=O)=O)c2-c2nn[nH]n2)cn1 [Example 411] | 9.75 | – | 9.93 | 9.39 | – | – | – | – | – | – | 1.563 | 0.7813 | 3.125 | 1.00 | 1.563 | 1.563
4 | Nc1nc2c(-c3ccc(S(=O)(=O)N[C@H]4CN[C@@H](CO)C4)c(S(N)(=O)=O)c3-c3nnn[nH]3)cccc2[nH]1 [Example 173, 4-(2-amino-1H-benzo[d]imidazol-4-yl)-N^1-((3R,5R)-5-(hydroxymethyl)pyrrolidin-3-yl)-3-(1H-tetrazol-5-yl)benzene-1,2-disulfonamide] | – | 1.00 | 10.02 | 9.03 | 1.563 | 1.563 | 0.7813 | 0.7813 | 3.125 | 9.55 | – | – | – | – | – | –
5 | N[C@@H]1CNC[C@@H]1NS(=O)(=O)c1ccc(-c2cccn3ccnc23)c(-c2nn[nH]n2)c1S(N)(=O)=O [Example 328, N1-((3S,4R)-4-aminopyrrolidin-3-yl)-4-(imidazo[1,2-a]pyridin-8-yl)-3-(2H-tetrazol-5-yl)benzene-1,2-disulfonamide] | – | 1.00 | 9.86 | 9.47 | 1.563 | 1.563 | – | – | – | 9.78 | 1.563 | 0.7813 | 3.125 | – | – | –
6 | NCCNS(=O)(=O)c1ccc(-c2ccc3nccn3c2)c(-c2nn[nH]n2)c1S(N)(=O)=O [Example 401] | 10.05 | – | 9.71 | 9.32 | – | – | – | – | – | – | 0.3906 | 0.7813 | 1.563 | 2.00 | 0.7813 | 1.563
7 | CC(CN1CCOCC1)NS(=O)(=O)c1ccc(-c2cccc3sc(N)nc23)c(-c2nnn[nH]2)c1S(N)(=O)=O (stereo not drawn) [Example 51, 4-(2-amino-1,3-benzothiazol-4-yl)-N1-(1-methyl-2-morpholin-4-ylethyl)-3-(1H-tetrazol-5-yl)benzene-1,2-disulfonamide] | 9.36 | 4.00 | 10.01 | 9.41 | 6.25 | 25 | 12.5 | 25 | 25 | – | – | – | – | – | – | –
8 | Nc1nc2c(-c3ccc(S(=O)(=O)N4CCNCC4)c(S(N)(=O)=O)c3-c3nn[nH]n3)cccc2s1 [Example 142, 3-(2-Aminobenzo[d]thiazol-4-yl)-6-(piperazin-1-ylsulfonyl)-2-(2H-tetrazol-5-yl)benzenesulfonamide] | 9.25 | 1.33 | 9.73 | 9.20 | 1.172 | 1.563 | 1.563 | 3.906 | 3.125 | – | – | – | – | – | – | –
9 | CCC1(NS(=O)(=O)c2ccc(-c3cccc4sc(N)nc34)c(-c3nnn[nH]3)c2S(N)(=O)=O)CCNC1 (stereo not drawn) [Example 56, 4-(2-amino-1,3-benzothiazol-4-yl)-N1-(3-ethylpyrrolidin-3-yl)-3-(1H-tetrazol-5-yl)benzene-1,2-disulfonamide] | 9.61 | 1.00 | 10.29 | 9.47 | 1.563 | 1.563 | 3.125 | 1.563 | 3.125 | – | – | – | – | – | – | –
10 | C[N+]1(C)CC[C@H](NS(=O)(=O)c2ccc(-c3cccc4[nH]c(N)nc34)c(-c3nn[n-]n3)c2S(N)(=O)=O)C1 [Example 166, (S)-5-(6-(2-amino-1H-benzo[d]imidazol-4-yl)-3-(N-(1,1-dimethylpyrrolidin-1-ium-3-yl)sulfamoyl)-2-sulfamoylphenyl)tetrazol-2-ide] | – | […] | 10.24 | 9.09 | 1.563 | 1.563 | 1.563 | 0.7813 | 3.125 | […] | – | – | – | – | – | –
11 | NCCNS(=O)(=O)c1ccc(-c2cccc3[nH]c(CCN)nc23)c(-c2nn[nH]n2)c1S(N)(=O)=O [Example 337, N1-(2-aminoethyl)-4-(2-(2-aminoethyl)-1H-benzo[d]imidazol-4-yl)-3-(2H-tetrazol-5-yl)benzene-1,2-disulfonamide] | 9.70 | 2.00 | 9.68 | 8.65 | 0.3906 | 0.7813 | – | – | – | – | 0.7813 | 0.7813 | 0.7813 | – | – | –
12 | Cn1cnc(CNS(=O)(=O)c2ccc(-c3cccc4sc(N)nc34)c(-c3nnn[nH]3)c2S(N)(=O)=O)n1 [Example 20, 4-(2-amino-1,3-benzothiazol-4-yl)-N^1-[(1-methyl-1H-1,2,4-triazol-3-yl)methyl]-3-(1H-tetrazol-5-yl)benzene-1,2-disulfonamide] | 9.31 | 1.00 | 10.01 | 9.09 | 6.25 | 6.25 | 6.25 | 25 | 25 | – | – | – | – | – | – | –
